Measured values from patent US20240285614A1, “PHENOL RIBONUCLEOTIDE REDUCTASE (RNR) INHIBITORS AND USES THEREOF” (Boundless Bio, Inc., priority 2023, published 2024).
pIC50: −log10 of the molar value.

Key:
[1] = tested on: pCHK1 (S345) in Colo320 DM cells; assay: Alphalisa assay, detection of pCHK1 (S345) in Colo320 DM cells; assay type: cell-based; details: Homo sapiens, COLO 320DM, compound incubation overnight (approximately 16 hours)
Protocol: Colo320 DM cells (ATCC #CCL-220, derived from human colorectal adenocarcinoma, Dukes' type C) were seeded on a 96-well, cell culture treated assay plate at a density of 50,000 cells/well in 200 μL of RPMI-1640 media supplemented with 10% Fetal Bovine Serum and incubated at 37° C. overnight. The following day, test compound dilutions were added directly to the plated cells by a Tecan digital dispenser to a final DMSO concentration of <0.5%, and incubated at 37° C. overnight (approximately 16 hours). The following day all cull culture media was removed from the cells. 75 μL of 1× AlphaLisa lysis buffer was added to each well and plates were agitated on a shaker for 30 minutes at room temperature. The lysis of cells and detection of pCHK1 (S345) were performed with regents contained within the AlphaLisa Sure Fire assay kit (Perkin Elmer #ALSU-PCHK1-A) according to the manufacturer's instructions. 10 μL of each lysate was then transferred to a white, 384-well assay plate (Perkin Elmer #6008280), 5 μL of Acceptor mix was then added to each well of lysate in the white, 384-well assay plate and incubated in the dark at room temperature for 60 minutes. 5 μL of Donor mix was then added to each well of the white, 384-well assay plate in subdued light and incubated at room temperature for 60 minutes. Plates were read on an Alpha Technology-compatible plate reader using standard AlphaLisa settings.

RNR (RNR1:RNR2 1:1) = target: T1, RNR (RNR1:RNR2 1:1) (Homo sapiens, UniProt P23921+P31350); assay: RNR enzyme activity, rapid-fire mass spectrometry (RF/MS) assay; assay type: biochemical; details: RNR 50 nM, 1:1 (RNR1:RNR2); CDP 5 μM; ATP 1 mM; 37° C., 45 min; compounds screened up to 50 μM
T1 sequence (P23921 1-792): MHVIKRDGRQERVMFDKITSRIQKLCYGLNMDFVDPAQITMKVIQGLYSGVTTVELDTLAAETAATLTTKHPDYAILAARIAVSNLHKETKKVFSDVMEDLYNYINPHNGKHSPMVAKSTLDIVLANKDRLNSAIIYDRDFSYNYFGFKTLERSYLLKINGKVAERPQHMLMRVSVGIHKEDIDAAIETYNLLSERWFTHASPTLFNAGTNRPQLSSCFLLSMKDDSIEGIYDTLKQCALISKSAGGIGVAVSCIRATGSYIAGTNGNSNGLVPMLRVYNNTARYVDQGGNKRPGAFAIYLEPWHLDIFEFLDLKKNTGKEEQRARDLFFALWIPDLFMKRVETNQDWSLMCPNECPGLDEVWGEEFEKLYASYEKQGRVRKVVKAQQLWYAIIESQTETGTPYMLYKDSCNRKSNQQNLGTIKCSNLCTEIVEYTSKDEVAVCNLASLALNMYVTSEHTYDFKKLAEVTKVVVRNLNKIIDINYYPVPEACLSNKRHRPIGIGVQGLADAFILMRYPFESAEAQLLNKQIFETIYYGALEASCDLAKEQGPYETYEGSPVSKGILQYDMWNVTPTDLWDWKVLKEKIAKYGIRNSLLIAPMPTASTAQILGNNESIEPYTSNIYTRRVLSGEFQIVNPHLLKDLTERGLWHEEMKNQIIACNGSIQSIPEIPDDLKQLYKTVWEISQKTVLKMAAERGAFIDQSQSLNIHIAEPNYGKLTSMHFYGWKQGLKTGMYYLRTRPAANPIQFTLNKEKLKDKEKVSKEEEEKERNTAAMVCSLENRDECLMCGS
T1 sequence (P31350 1-389): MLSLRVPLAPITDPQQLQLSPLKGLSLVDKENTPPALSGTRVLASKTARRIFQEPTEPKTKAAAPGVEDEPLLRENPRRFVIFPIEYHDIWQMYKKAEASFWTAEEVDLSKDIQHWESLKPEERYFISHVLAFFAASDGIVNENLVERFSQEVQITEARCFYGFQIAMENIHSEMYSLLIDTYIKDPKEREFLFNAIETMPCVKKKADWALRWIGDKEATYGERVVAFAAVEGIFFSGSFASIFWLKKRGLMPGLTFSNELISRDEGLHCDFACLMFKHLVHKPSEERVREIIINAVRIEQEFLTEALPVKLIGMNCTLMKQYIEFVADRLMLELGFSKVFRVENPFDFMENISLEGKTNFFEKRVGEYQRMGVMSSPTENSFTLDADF
Protocol: A rapid-fire mass spectrometry (RF/MS) assay was used to assess RNR enzyme activity using a 384 well plate and a robotic platform.
The plate layout included two validated reference compounds (Triapine (3-AP) and Hydroxyurea (HU)): • A dose response in duplicate, top concentration: 5 μM (3-AP) and 250 μM (HU), semi-log • dilutions. • Spike wells in triplicate randomly spotted at four concentrations: • 250 μM, 100 μM, 30 μM and 2 μM for HU • 5 μM, 2 μM, 0.6 μM and 0.04 μM for 3-AP
First, the multidrop pipes were saturated for 30 minutes with enzymatic solution. Then 30 μL of Stop solution was distributed in column 24. Next, 15 μL of enzyme was distributed in column 1 to 24. Next, a pre-incubation step of 15 minutes at room temperature occurred, followed by distribution of 15 μL of substrate solution (column 1 to 24). Next, the plate was incubated for 45 minutes at 37° C. 30 μL of Stop solution was distributed to columns 1 to 23.
The final parameters for the enzyme reactions were: • Incubation: 37° C., 45 min • [CDP]: 5 μM: [ATP]: 1 mM; [NADPH]: No • [RNR]final: 50 nM with 1:1 (RNR1:RNR2) ratio • Final volume: 30 μL • Stop solution: 6% HCOOH containing 2 μM of 15

SMILES	pIC50 [1]	pIC50 (RNR (RNR1:RNR2 1:1))
Cn1ccc2cccc(S(=O)(=O)N3CCN(c4ccc(O)cc4)CC3)c21 [compound 1, 4-(4-((1-methyl-1H-indol-7-yl)sulfonyl)piperazin-1-yl)phenol]	5.00 to 5.30	≥ 7.30
Cn1ccc2ccc(S(=O)(=O)N3CCN(c4ccc(O)cc4)CC3)cc21 [compound 3, 4-(4-((1-methyl-1H-indol-6-yl)sulfonyl)piperazin-1-yl)phenol]	5.00 to 5.30	6.30 to 7.00
Cn1ccc2cc(S(=O)(=O)N3CCN(c4ccc(O)cc4)CC3)ccc21 [compound 4, 4-(4-((1-methyl-1H-indol-5-yl)sulfonyl)piperazin-1-yl)phenol]	5.00 to 5.30	6.30 to 7.00
Cn1ccc2cc(S(=O)(=O)N3CCN(c4ccc(O)cc4)CC3)cnc21 [compound 6, 4-(4-((1-methyl-1H-pyrrolo[2,3-b]pyridin-5-yl)sulfonyl)piperazin-1-yl)phenol]	4.30 to 5.00	6.30 to 7.00
O=S(=O)(c1ccc2cc[nH]c2c1)N1CC=C(c2ccc(O)cc2)CC1 [compound 8, 4-[1-(1H-indol-6-ylsulfonyl)-3,6-dihydro-2H-pyridin-4-yl]phenol]	5.30 to 6.00	
O=S(=O)(c1ccc2[nH]ccc2c1)N1CCN(c2ccc(O)cc2)CC1 [compound 9, 4-(4-((1H-indol-5-yl)sulfonyl)piperazin-1-yl)phenol]	5.00 to 5.30	6.30 to 7.00
O=S(=O)(NC1CN(c2ccc(O)cc2)C1)c1ccc2cc[nH]c2c1 [compound 10, N-(1-(4-hydroxyphenyl)azetidin-3-yl)-1H-indole-6-sulfonamide]	5.30 to 6.00	7.00 to 7.30
O=S(=O)(c1ccc2cc[nH]c2c1)N1CC(Nc2ccc(O)cc2)C1 [compound 11, 4-((1-((1H-indol-6-yl)sulfonyl)azetidin-3-yl)amino)phenol]	5.30 to 6.00	≥ 7.30
CN(C1CCN(c2ccc(O)cc2)CC1)S(=O)(=O)c1ccc2cc[nH]c2c1 [compound 12, N-(1-(4-hydroxyphenyl)piperidin-4-yl)-N-methyl-1H-indole-6-sulfonamide]	5.00 to 5.30	≥ 7.30
O=S(=O)(c1ccc2cc[nH]c2c1)N1CCN(c2ccc(O)cc2)CC12CC2 [compound 33, 4-(4-((1H-indol-6-yl)sulfonyl)-4,7-diazaspiro[2.5]octan-7-yl)phenol]	5.30 to 6.00	
O=C1C[C@@H]2CN(S(=O)(=O)c3ccc4cc[nH]c4c3)C[C@H](C1)N2c1ccc(O)cc1 [compound 42, (1R,5S)-3-((1H-indol-6-yl)sulfonyl)-9-(4-hydroxyphenyl)-3,9-diazabicyclo[3.3.1]nonan-7-one]	5.30 to 6.00	
O=S(=O)(c1ccc2cc[nH]c2c1)N1CCC2C1CCCN2c1ccc(O)cc1 (centres unmarked) [compound 49, 4-(1-((1H-indol-6-yl)sulfonyl)octahydro-4H-pyrrolo[3,2-b]pyridin-4-yl)phenol]	5.30 to 6.00	

More lines, now with the values ahead:

pIC50 [1]	pIC50 (RNR (RNR1:RNR2 1:1))	SMILES
≥ 6.00	≥ 7.30	CN(c1ccc(O)cc1)C1CCN(S(=O)(=O)c2ccc3cc[nH]c3c2)C1 (racemic) [compound 20, rac-(R)-4-((1-((1H-indol-6-yl)sulfonyl)pyrrolidin-3-yl)(methyl)amino)phenol]
≥ 6.00	≥ 7.30	CN(c1ccc(O)cc1)C1CCN(S(=O)(=O)c2ccc3[nH]ccc3c2)C1 (racemic) [compound 30, rac-(R)-4-((1-((1H-indol-5-yl)sulfonyl)pyrrolidin-3-yl)(methyl)amino)phenol]
5.30 to 6.00	≥ 7.30	CN(c1ccc(O)cc1)C1CCN(S(=O)(=O)c2cccc3[nH]ccc23)C1 (racemic) [compound 31, rac-(R)-4-((1-((1H-indol-4-yl)sulfonyl)pyrrolidin-3-yl)(methyl)amino)phenol]
5.30 to 6.00		CN(c1ccc(O)cc1)C1CCN(S(=O)(=O)c2cc3[nH]c(Cl)cc3cc2F)C1 (racemic) [compound 32, rac-(R)-4-((1-((2-chloro-5-fluoro-1H-indol-6-yl)sulfonyl)pyrrolidin-3-yl)(methyl)amino)phenol]
5.30 to 6.00	6.30 to 7.00	C[C@@H]1[C@H](Nc2ccc(O)cc2)CN1S(=O)(=O)c1ccc2cc[nH]c2c1 (racemic) [compound 36, rac-4-(((2R,3R)-1-((1H-indol-6-yl)sulfonyl)-2-methylazetidin-3-yl)amino)phenol]
5.30 to 6.00	≥ 7.30	C[C@@H]1C[C@H](N(C)c2ccc(O)cc2)CN1S(=O)(=O)c1ccc2cc[nH]c2c1 (racemic) [compound 37, rac-4-(((3R,5S)-1-((1H-indol-6-yl)sulfonyl)-5-methylpyrrolidin-3-yl)(methyl)amino)phenol]
5.30 to 6.00	≥ 7.30	CN(c1ccc(O)cc1)C1CN(S(=O)(=O)c2ccc3cc[nH]c3c2)C2(CC2)C1 (racemic) [compound 38, rac-(R)-4-((4-((1H-indol-6-yl)sulfonyl)-4-azaspiro[2.4]heptan-6-yl)(methyl)amino)phenol]
5.30 to 6.00	≥ 7.30	C[C@@H]1CN(S(=O)(=O)c2ccc3cc[nH]c3c2)C[C@H]1N(C)c1ccc(O)cc1 (racemic) [compound 39, rac-4-(((3R,4S)-1-((1H-indol-6-yl)sulfonyl)-4-methylpyrrolidin-3-yl)(methyl)amino)phenol]
5.30 to 6.00		C[C@H]1C[C@H](N(C)c2ccc(O)cc2)CN1S(=O)(=O)c1ccc2cc[nH]c2c1 (racemic) [compound 48, rac-4-(((3R,5R)-1-((1H-indol-6-yl)sulfonyl)-5-methylpyrrolidin-3-yl)(methyl)amino)phenol]
5.30 to 6.00	7.00 to 7.30	O=S(=O)(c1ccc2cc[nH]c2c1)N1CCN(c2ccc(O)cc2)CC1 [compound 2, 4-(4-((1H-indol-6-yl)sulfonyl)piperazin-1-yl)phenol]
5.30 to 6.00	6.30 to 7.00	O=S(=O)(c1cccc2cc[nH]c12)N1CCN(c2ccc(O)cc2)CC1 [compound 5, 4-(4-((1H-indol-7-yl)sulfonyl)piperazin-1-yl)phenol]
5.30 to 6.00	7.00 to 7.30	O=S(=O)(c1cccc2[nH]ccc12)N1CCN(c2ccc(O)cc2)CC1 [compound 7, 4-(4-((1H-indol-4-yl)sulfonyl)piperazin-1-yl)phenol]
≥ 6.00	≥ 7.30	CN(c1ccc(O)cc1)C1CN(S(=O)(=O)c2ccc3cc[nH]c3c2)C1 [compound 13, 4-((1-((1H-indol-6-yl)sulfonyl)azetidin-3-yl)(methyl)amino)phenol]
